A short description of series [1]: in vivo resorption examination in mice: serum concentration determined microbiologically from inhibition zones. On the set-up: species or system Male CFLP mice. To be noted: for resorption: in vivo, comparison in words; for concentration at 0.5 h: 0.5 hour after treatment, as oxolinic acid; for concentration at 0.5 h / concentration at 1 h / concentration at 2 h / concentration at 3 h / concentration at 4 h: read-out: Plasma concentrations from the calibration curve; for concentration at 1 h: 1 hour after treatment; for concentration at 2 h: 2 hours after treatment; for concentration at 3 h: 3 hours after treatment; for concentration at 4 h: 4 hours after treatment; for Diameters of the inhibition zones: parallels a, b, c. The protocol: Male CFLP mice with 25 g of an average body weight were used for these experiments. After starving for 12 hours, the animals were given oxolinic acid or choline oxolinate, respectively in a volume of 2 ml/100 g of body weight as an aqueous suspension containing 1 % of methylcellulose. The doses administered were 50 mg/kg of body weight of oxolinic acid or 70 mg/kg of body weight of choline oxolinate, respectively. )These doses are equimolar as calculated for oxolinic acid.) At 0.5, 1, 2, 3 or 4 hours, respectively after treatment the animals were killed, their blood were centrifuged and the serum were used for the microbiological determination of the concentration.
The examinations were carried out in three parallels. 50/ul of the serum were applied to an agar gel plate containing Proteus Mirabilis in a concentration of 10^7 germs/ml. Simultaneously, a calibration curve was taken up with 50 ul each of suspensions containing oxolinic acid in a concentration of 1, 2, 4, 5, 10, 50 and 100 ug/ml, respectively. The serum concentrations were calculated from the average of diameters of the inhibition zones by using the calibration curve.
(§1) The calibration values are shown in Table I and in Figue 3, respectively. The results of determinations are summarized in Tables II and III and in Figure 4, respectively.

Series [2] can be described thus: solubility of the substance in water and solvents.
The next series deals with Proteus Mirabilis. Nature of the series: calibrating series on agar gel plate: inhibition zone against concentration. It is filed as cell-based. To be noted: 50 ul applied, 2 parallels. How it is done: […] 50/ul of the serum were applied to an agar gel plate containing Proteus Mirabilis in a concentration of 10^7 germs/ml. Simultaneously, a calibration curve was taken up with 50 ul each of suspensions containing oxolinic acid in a concentration of 1, 2, 4, 5, 10, 50 and 100 ug/ml, respectively. The serum concentrations were calculated from the average of diameters of the inhibition zones by using the calibration curve.
as §1

The mark [3] stands for this setting: mouse, serum, 50 mg/kg oxolinic acid or 70 mg/kg choline oxolinate.
Setting [4] is: serum sampled at 1.0 hour, 50 mg/kg oxolinic acid or 70 mg/kg choline oxolinate.
[5] abbreviates: serum sampled at 2.0 hour, 50 mg/kg oxolinic acid or 70 mg/kg choline oxolinate.
Setting [6] is: serum sampled at 3.0 hour, 50 mg/kg oxolinic acid or 70 mg/kg choline oxolinate.
The mark [7] stands for this setting: serum sampled at 4.0 hour, 50 mg/kg oxolinic acid or 70 mg/kg choline oxolinate.

Experimental findings from EP0153171A2, “New 2-hydroxyethyl-trimethylammonium salt of 1-ethyl-3-carboxy-4-oxo-6,7-methylenedioxy-1,4-dihydroquinoline, process for the preparation thereof and pharmaceutical composition containing it” (CHINOIN Gyogyszer és Vegyészeti Termékek Gyára RT., priority 1984, dated 1985) are described below.

Several values for one entry are separate records, joined by “and”; a condition that tells them apart may be missing. Identical values can stand only once. Counter-ions that a name gives are not always drawn.

Take `CCn1cc(C(=O)O)c(=O)c2cc3c(cc21)OCO3` [choline oxolinate, 2-hydroxyethyl-trimethylammonium salt of 1-ethyl-3-carboxy-4-oxo-6,7-methylenedioxy-1,4-dihydroquinoline]: the resorption entry in series [1] is given as “substantially better resorbed”. Moreover, the bioavailability entry in series [1] (mice, compared with administration of oxolinic acid) was “sigrificantly higher”. Also, the concentration at 0.5 h in series [1] (setting [3]) worked out at 56000 ng/mL. Further, the concentration at 1 h in series [1] (setting [3]) came to 26000 ng/mL. The concentration at 2 h in series [1] (setting [3]) came out at 15000 ng/mL. For the same compound, in series [1] (setting [3]), the concentration at 3 h is 6600 ng/mL. In addition, in series [1] (setting [3]), the concentration at 4 h is 3100 ng/mL. Moreover, in series [1] (mouse, serum, mice, 70 mg/kg choline oxolinate, first sampling, read-out: time at which a high level of serum concentration was reached), the Tmax was at most 30 min. The “Diameters of the inhibition zones” value in series [1] (serum sampled at 0.5 hour, equimolar doses: 50 mg/kg oxolinic acid or 70 mg/kg choline oxolinate, 50 ul serum on Proteus Mirabilis plate) is 22.6 mm and 21.9 mm; in series [1] (setting [4]), 19.3 mm and 19.1 mm and 20.9 mm; in series [1] (setting [5]), 18.2 mm and 17.8 mm; in series [1] (setting [6]), 13.9 mm and 15.3 mm and 11.4 mm; in series [1] (setting [7]) it was 11.7 mm and 14.3 mm. Further, the “solubility (in words)” value in series [2] (acetone) is on record as “insoluble”; in series [2] (chloroform) it was “dissolves well”; in series [2] (ethanol), “dissolves well”; in series [2] (ether), “insoluble”; in series [2] (water), “dissolves well”. Moreover, in series [2] (water), the solubility in water entry is “higher than 1 g/ml”.

As to `CCn1cc(C(=O)O)c(=O)c2cc3c(cc21)OCO3` [oxolinic acid, 1-ethyl--3-carboxy-4-oxo-6,7-methylenedioxy-1,4-dihydroquinoline], the concentration at 0.5 h in series [1] (setting [3]) amounted to 15000 ng/mL. Besides, the concentration at 1 h in series [1] (setting [3]) was determined as 14500 ng/mL. Moreover, the concentration at 2 h in series [1] (setting [3]) is 4600 ng/mL. Also, the concentration at 3 h in series [1] (setting [3]) came out at 4200 ng/mL. The concentration at 4 h in series [1] (setting [3]) came out at 4800 ng/mL. For the same compound, the “Diameters of the inhibition zones” value in series [1] (setting [4]) was 17.7 mm and 18.2 mm and 17.5 mm; in series [1] (setting [5]), 15.3 mm and 17.4 mm and 8.8 mm; in series [1] (setting [6]), 14.0 mm and 16.0 mm and 14.3 mm; in series [1] (setting [7]) it was 16.8 mm and 14.7 mm and 14.1 mm. Further, the zone of inhibition at 1 µg/mL in the series with Proteus Mirabilis (Proteus mirabilis, concentration 1 /ug/ml, read-out: Diameter of the inhibition zone) stood at 8.6 mm. The zone of inhibition at 2 µg/mL with Proteus Mirabilis (Proteus mirabilis, concentration 2 /ug/ml, read-out: Diameter of the inhibition zone) stood at 11.6 mm. The zone of inhibition at 4 µg/mL in the series with Proteus Mirabilis (Proteus mirabilis, concentration 4 /ug/ml, read-out: Diameter of the inhibition zone) worked out at 14.4 mm. The zone of inhibition at 5 µg/mL with Proteus Mirabilis (Proteus mirabilis, concentration 5 /ug/ml, read-out: Diameter of the inhibition zone) worked out at 15 mm. Besides, in the series with Proteus Mirabilis (Proteus mirabilis, concentration 10 /ug/ml, read-out: Diameter of the inhibition zone), the zone of inhibition at 10 µg/mL was 17.9 mm. Moreover, in the series with Proteus Mirabilis (Proteus mirabilis, concentration 50 /ug/ml, read-out: Diameter of the inhibition zone), the zone of inhibition at 50 µg/mL turned out to be 20.7 mm. In addition, the zone of inhibition at 100 µg/mL with Proteus Mirabilis (Proteus mirabilis, concentration 100 /ug/ml, read-out: Diameter of the inhibition zone) was 26.5 mm. Besides, the “Diameter of the inhibition zone” value in the series on Proteus Mirabilis (concentration 1 /ug/ml) is reported as 8.5 mm; in the series with Proteus Mirabilis (concentration 2 /ug/ml), 11.9 mm; with Proteus Mirabilis (concentration 4 /ug/ml) it was 14.1 mm; with Proteus Mirabilis (concentration 5 /ug/ml) it was 14.7 mm; in the series with Proteus Mirabilis (concentration 10 /ug/ml), 17.2 mm; with Proteus Mirabilis (concentration 50 /ug/ml), 19.4 mm. In the series on Proteus Mirabilis (concentration 100 /ug/ml), the “Diameter of the inhibition zone” value came to 24.7 mm. For the same compound, in series [2] (water), the solubility in water is reported as 6,5 /ug/ml.

For the compound `CCn1cc(C(=O)[O-])c(=O)c2cc3c(cc21)OCO3.[Na+]` [sodium oxolinate], the resorption entry in series [1] is reported as “weaker than that of choline oxolinate”.

A word on the zone of inhibition: it is the extent of the growth-free halo in a diffusion test.
